From patent US4190647A, “Polypeptides and methods” (Sloan-Kettering Institute for Cancer Research, priority 1979, dated 1980)
Where a SMILES comes first, the peptide text is derived from it.

Tests used:
[1] = activity of terminally substituted pentapeptides in Twomey solution compared with the basic pentapeptide of Example I; format: cell-based
chicken bone marrow = experiment: induction of Th-1 (T-cell) antigen on chicken bone marrow, cytotoxicity assay; format: cell-based; conditions: peptide at 1 μg/mil (method text: 0.1 μg/ml); control incubations subtracted
Description: To determine the pharmacological activity and characteristics of these pentapeptides, use was made of the induction of Th-1 (T-cell) antigen on chicken bone marrow for use as an assay of the peptides at a concentration of 1 μg/mil. This method is described in Science, Brand et al, Vol. 193, pp. 319-321, July, 1976. In this method, pooled cells from femur and tibiotarsus of newly hatched chicks of strain SC (Hy-Line) are fractionated by ultracentrifugation on a five-layer discontinuous bovine serum albumin (BSA) gradient (11). Cells from each interface are washed and suspended for incubation at a concentration of 5×10^6 cells per milliliter with the peptide (0.1 μg/ml) in RPMI 1630 medium supplemented with 15 mM Hepes, 5 percent y-globulin-free fetal calf serum, deoxyribonuclease (14 to 18 unit/ml), heparin (5 unit/ml), penicillin (100 unit/ml), and streptomycin (100 μg/ml). Controls are incubated with BSA (1 μg/ml) or medium alone. After incubation, the cells are tested in the cytotoxicity assay using chicken and guinea pig complement fractions. The proportion of Bu-1^+ or Th-1^+ cells in each layer are calculated as a cytotoxicity index, 100 (a-b)/a, where a and b are the percentages of viable cells in the complement control and test preparation, respectively. The percentage of cells induced is obtained by subtracting the mean values in the control incubations without inducing agents (usually 1 to 3 percent) from those of the test inductions.

[2] = tested on: precursors present in bone marrow or spleen; conditions: precursors from bone marrow or spleen; cited from earlier work

| Molecule | % Induction of Th-1 (T-cell) antigen on chicken bone marrow (chicken bone marrow) [%] | further results |
| --- | --- | --- |
| CC[C@H](C)[C@H](NC(=O)[C@H](CC(N)=O)NC(=O)[C@H](Cc1ccc(O)cc1)NC(C)=O)C(=O)N[C@@H](CCC(N)=O)C(=O)N[C@@H](CCCCN)C(=O)O [Example III, CH3 CONH-TYR-ASN-ILE-GLN-LYS-COOH] (Ac-YNIQK-OH) | – | activity relative to the basic pentapeptide of Example I ([1]; 1 μg/ml in 14% Twomey solution): maximum and minimum activities comparable to the basic pentapeptide of Example I |
| CC[C@H](C)[C@H](NC(=O)[C@H](CC(N)=O)NC(=O)[C@@H](N)Cc1ccc(O)cc1)C(=O)N[C@@H](CCC(N)=O)C(=O)N[C@@H](CCCCN)C(N)=O [Example IV, H2 N-TYR-ASN-ILE-GLN-LYS-CONH2] (H-YNIQK-NH2) | – | activity relative to the basic pentapeptide of Example I ([1]; 1 μg/ml in 6% Twomey solution): activity comparable to the basic pentapeptide of Example I |
| CC[C@H](C)[C@H](NC(=O)[C@H](CC(N)=O)NC(=O)[C@H](C)N)C(=O)N[C@@H](CCC(N)=O)C(=O)N[C@@H](CCCCN)C(=O)O [Example XXII, H2 N-ALA-ASN-ILE-GLN-LYS-COOH] (H-ANIQK-OH) | 12 | – |
| CC[C@H](C)[C@H](NC(=O)[C@H](C)NC(=O)[C@@H](N)Cc1ccc(O)cc1)C(=O)N[C@@H](CCC(N)=O)C(=O)N[C@@H](CCCCN)C(=O)O [Example XXIII, H2 N-TYR-ALA-ILE-GLN-LYS-COOH] (H-YAIQK-OH) | 15 | – |
| C[C@H](NC(=O)[C@H](CC(N)=O)NC(=O)[C@@H](N)Cc1ccc(O)cc1)C(=O)N[C@@H](CCC(N)=O)C(=O)N[C@@H](CCCCN)C(=O)O [Example XXIV, H2 N-TYR-ASN-ALA-GLN-LYS-COOH] (H-YNAQK-OH) | 21 | – |
| Ubiquitin | – | concentration inducing in vitro differentiation of both T-cell and B-cell immunocytes [2]: nanogram concentrations |
